We go through 3 compounds from patent US20030216334A1, “Methods for inhibiting/treating hiv infections and aids related symptoms” (priority 2003, published 2003).

Molecules are shown by their SMILES. Values after ≈ are worked out from the molar mass of the structure shown.

Series [1] deals with HIV IIIB (wild type). Kind of series: Viral cytopathogenicity, tetrazolium-based colorimetric assay, IIIB. The class given is cell-based. As for the experimental part:
(§1) Effect on Drug-Resistant Mutants. […] Viral cytopathogencity was determined by Serquest Inc., a Division of Southern Research Institute, Gaithersburg Md. using the tetrazolium-based calorimetric assay, and the data were analyzed using a program developed by the Southern Research Institute. A number of viruses were used in these studies, which include some that are resistant to both the NNRTIs and NRTIs.
On the technique in general: Damage to the host cells serves as the signal in cytopathic effect assays.

Series [2] is described as follows: in vitro. Here is the method: as §1
For series [3], the system named is NL4-3 (wild type). Kind of series: Viral cytopathogenicity, tetrazolium-based colorimetric assay, NL4-3. The settings on record: Human immunodeficiency virus 1, NL43. As for the experimental part:
as §1

For series [4], the system named is 4XAZT. Briefly: microbe, parasite or virus in culture. The conditions noted are these: Human immunodeficiency virus 1. Here is the method:
as §1

Series [5] has as its system Y181C. Kind of series: microbe, parasite or virus in culture. The settings on record: Human immunodeficiency virus 1. The class given is cell-based, HIV. Here is the method:
as §1

Series [6] relates to DPS-R (Y181C). Kind of series: microbe, parasite or virus in culture. In kind it is cell-based, HIV. The conditions noted are these: Human immunodeficiency virus 1. As for the experimental part:
as §1

Series [7] concerns L100I. Briefly: microbe, parasite or virus in culture. In kind it is cell-based, HIV. The settings on record: Human immunodeficiency virus 1, virus L100I. As for the experimental part:
as §1

Series [8] in a line: in vitro. As for the experimental part: as §1
This is another data set of the same source.

The test system of series [9] is K103N. Kind of series: microbe, parasite or virus in culture. The class given is cell-based, HIV. The conditions noted are these: Human immunodeficiency virus 1, virus K103N. Here is the method:
as §1

Series [10] deals with HeLa CD4 LTR β-gal and HL2/3 cells. Kind of series: Cell-to-cell fusion assay in the absence of virus. The text has this: (§2) 2) Inhibition of HIV-1 attachment and entry into target cells.
Series [11] concerns HIV-1 attachment and entry into target cells. Briefly: microbe, parasite or virus in culture.
From the text: as §2

The target in series [12] is gp120 binding to CD4 (UniProt P01730+P04578). Kind of series: gp120/CD4 binding, cell-associated viral p24 antigen read-out.
From the text: as §2

[13] abbreviates: Human immunodeficiency virus 1, IIIB.

In general, IC50 refers to the concentration at which inhibition is half-maximal. Low readings indicate higher potency, high ones lower potency. With `Cc1cn([C@H]2C[C@H](N=[N+]=[N-])[C@@H](CO)O2)c(=O)[nH]c1=O` [AZT, zidovudine], the IC50 was 3 nM in series [1] (setting [13]); 3.2 nM in [1] (virus IIIB); 60 nM in series [3]; no less than 1000 nM in [4]; 10 nM in series [5]; 20 nM in series [6]. The same compound returned an IC50 in series [7] of 3 nM. The compound also came in with a CC50 in series [2] of 1000 nM.
Take `Cc1ccnc2c1NC(=O)c1cccnc1N2C1CC1` [Nevirapine, nevirapine]: the IC50 in [1] (setting [13]) was 30 nM; in series [3], 60 nM; in series [4], 50 nM; in series [9] it was 3200 nM; in [5], 1030 nM; in series [6] it was no less than 10000 nM. In series [7], this compound came in with an IC50 of 150 nM. For the same compound, the values for the CC50 in series [2] and in series [8] were 10000 nM and 1000 nM, respectively.
On to `COc1cc(-c2ccc(/N=N/c3ccc4c(S(=O)(=O)O)cc(S(=O)(=O)O)c(N)c4c3O)c(OC)c2)ccc1/N=N/c1ccc2c(S(=O)(=O)O)cc(S(=O)(=O)O)c(N)c2c1O` [CSB, Chicago Sky Blue], for which the IC50 in series [10] stood at 0.67 µg/mL (≈ 0.74 µM); in [11] (Human immunodeficiency virus 1, HeLa) it was 1.19 µg/mL (≈ 1.32 µM). In addition, the TC50 in series [10] (Fusion) and in series [11] (Attachment) was greater than 10 µg/mL each time. Moreover, the TI in series [12] (gp120/CD4 Binding) is on record as 8.3. Besides, the CC50 in [12] (human, HIV-1 infected HeLa CD4 LTR β-gal cells) is greater than 10 µg/mL.
